In patent US11541055B2, “Inhibitors of human immunodeficiency virus replication” (ViiV Healthcare UK (No. 5) LIMITED, priority 2018, dated 2023):

Columns and labels:
[1] = system: recombinant NL4-3 virus (Renilla luciferase) in MT-2 cells; assay: HIV cell culture assay (antiviral activity, luciferase readout); assay type: cell-based; conditions: Renilla, NL43
Description: HIV cell culture assay—MT-2 cells, 293T cells and the proviral DNA clone of NL4-3 virus were obtained from the NIH AIDS Research and Reference Reagent Program. MT-2 cells were propagated in RPMI 1640 media supplemented with 10% heat inactivated fetal bovine serum (FBS), […]. The 293T cells were propagated in DMEM media supplemented with 10% heat inactivated FBS, […] penicillin G and […] streptomycin. A recombinant NL40.3 proviral clone, in which a section of the nef gene was replaced with the Renilla luciferase gene, was used to make the reference virus used in these studies. The recombinant virus was prepared through transfection of the recombinant NL4-3 proviral clone into 293T cells using Transit-293 Transfection Reagent from Minis Bio LLC (Madison, Wis.). Supernatent was harvested after 2-3 days and the amount of virus present was titered in MT-2 cells using luciferase enzyme activity as a marker by measuring luciferase enzyme activity. Luciferase was quantitated using the EnduRen Live Cell Substrate from Promega (Madison, Wis.). Antiviral activities of compounds toward the recombinant virus were quantified by measuring luciferase activity in MT-2 cells infected for 4-5 days with the recombinant virus in the presence of serial dilutions of the compound.
The 50% effective concentration (EC50) was calculated by using the exponential form of the median effect equation where (Fa)=1/[1+(ED50/drug conc.)m] (Johnson V A, Byington R T. Infectivity Assay. In Techniques in HIV Research. ed. Aldovini A, Walker B D. 71-76. New York: Stockton Press. 1990). The 50% inhibitory concentration (EC50) was calculated by using the exponential form of the median effect equation where percent inhibition=1/[1+(EC50/drug concentration)m], where m is a parameter that reflects the slope of the concentration-response curve.

[2] = Compound cytotoxicity, XTT-based colorimetric assay; assay type: cell-based; conditions: human; uninfected MT2 cells, day 4, XTT
Description: Compound cytotoxicity and the corresponding CC50 values were determined using the same protocol as described in the antiviral assay except that uninfected cells were used. Cytotoxicity was assessed on day 4 in uninfected MT2 cells by using a XTT (2,3-bis[2-Methoxy-4-nitro-5-sulfophenyl]-2H-tetrazolium-5-carboxyanilide inner salt)-based colorimetric assay (Sigma-Aldrich, St Louis, Mo.).

Compound `Cc1nnc(-c2ccc3c(=O)n(-c4ccc(Cl)c5c(NS(C)(=O)=O)nn(CC(F)F)c45)c([C@H](Cc4cc(F)cc(F)c4)NC(=O)Cn4nc(C(F)F)c5c4C(F)(F)[C@@H]4C[C@H]54)nc3c2)nc1C` (atropisomer, axis not shown) [Example 133, N-[(1S)-1-{3-[4-chloro-1-(2,2-difluoroethyl)-3-methanesulfonamido-1H-indazol-7-yl]-7-(5,6-dimethyl-1,2,4-triazin-3-yl)-4-oxo-3,4-dihydroquinazolin-2-yl}-2-(3,5-difluorophenyl)ethyl]-2-[(2S,4R)-9-(difluoromethyl)-5,5-difluoro-7,8-diazatricyclo[4.3.0.0^2,^4]nona-1(6),8-dien-7-yl]acetamide] has an EC50 [1] of 0.04 nM and a CC50 at 4 days [2] greater than 500 nM.

Compound `CCc1ccnc(-c2ccc3c(=O)n(-c4ccc(Cl)c5c(NS(C)(=O)=O)nn(CC(F)(F)F)c45)c([C@H](Cc4cc(F)cc(F)c4)NC(=O)Cn4nc(C(F)F)c5c4C(F)(F)[C@@H]4C[C@H]54)nc3c2)n1` (atropisomer, axis not shown) [Example 111, N-[(1S)-1-{3-[4-chloro-3-methanesulfonamido-1-(2,2,2-trifluoroethyl)-1H-indazol-7-yl]-7-(4-ethylpyrimidin-2-yl)-4-oxo-3,4-dihydroquinazolin-2-yl}-2-(3,5-difluorophenyl)ethyl]-2-[(2S,4R)-9-(difluoromethyl)-5,5-difluoro-7,8-diazatricyclo[4.3.0.0^2,^4]nona-1(6),8-dien-7-yl]acetamide] has an EC50 [1] of 0.11 nM and a CC50 at 4 days [2] greater than 500 nM.

In the case of `Cn1nc(NS(C)(=O)=O)c2c(Cl)ccc(-n3c([C@H](Cc4cc(F)cc(F)c4)NC(=O)Cn4nc(C(F)F)c5c4C(F)(F)[C@@H]4C[C@H]54)nc4cc(-c5ncccc5F)ccc4c3=O)c21` (atropisomer, axis not shown; (P)) [Example 21, N—((S)-1-((3P)-3-(4-chloro-1-methyl-3-(methylsulfonamido)-1H-indazol-7-yl)-7-(3-fluoropyridin-2-yl)-4-oxo-3,4-dihydroquinazolin-2-yl)-2-(3,5-difluorophenyl)ethyl)-2-((3bS,4aR)-3-(difluoromethyl)-5,5-difluoro-3b,4,4a,5-tetrahydro-1H-cyclopropa[3,4]cyclopenta[1,2-c]pyrazol-1-yl)acetamide], the EC50 [1] is reported as 0.091 nM and the CC50 at 4 days [2] is reported as greater than 500 nM.

`Cn1nc(NS(C)(=O)=O)c2c(Cl)ccc(-n3c([C@H](Cc4cc(F)cc(F)c4)NC(=O)Cn4nc(C(F)F)c5c4C(F)(F)[C@@H]4C[C@H]54)nc4cc(-c5cccc(C(F)F)n5)ccc4c3=O)c21` (atropisomer, axis not shown) [Example 117] gave an EC50 [1] of 0.069 nM and a CC50 at 4 days [2] greater than 500 nM.

For `CC(C)c1nccc(-c2ccc3c(=O)n(-c4ccc(Cl)c5c(NS(C)(=O)=O)nn(C)c45)c([C@H](Cc4cc(F)cc(F)c4)NC(=O)Cn4nc(C(F)F)c5c4C(F)(F)[C@@H]4C[C@H]54)nc3c2)n1` (atropisomer, axis not shown; (P)) [Example 67, N—((S)-1-((3P)-3-(4-chloro-1-methyl-3-(methylsulfonamido)-1H-indazol-7-yl)-7-(2-isopropylpyrimidin-4-yl)-4-oxo-3,4-dihydroquinazolin-2-yl)-2-(3,5-difluorophenyl)ethyl)-2-((3bS,4aR)-3-(difluoromethyl)-5,5-difluoro-3b,4,4a,5-tetrahydro-1H-cyclopropa[3,4]cyclopenta[1,2-c]pyrazol-1-yl)acetamide], the EC50 [1] was 0.15 nM and the CC50 at 4 days [2] was greater than 500 nM.

`Cc1nccc(-c2ccc3c(=O)n(-c4ccc(Cl)c5c(NS(=O)(=O)C6CC6)nn(CC(F)F)c45)c([C@H](Cc4cc(F)cc(F)c4)NC(=O)Cn4nc(C(F)F)c5c4C(F)(F)[C@@H]4C[C@H]54)nc3c2)n1` (atropisomer, axis not shown; (P)) [Example 81, N—((S)-1-((3P)-3-(4-chloro-3-(cyclopropanesulfonamido)-1-(2,2-difluoroethyl)-1H-indazol-7-yl)-7-(2-methylpyrimidin-4-yl)-4-oxo-3,4-dihydroquinazolin-2-yl)-2-(3,5-difluorophenyl)ethyl)-2-((3bS,4aR)-3-(difluoromethyl)-5,5-difluoro-3b,4,4a,5-tetrahydro-1H-cyclopropa[3,4]cyclopenta[1,2-c]pyrazol-1-yl)acetamide] gave an EC50 [1] of 0.092 nM and a CC50 at 4 days [2] greater than 500 nM.

`Cn1nc(NS(C)(=O)=O)c2c(Cl)ccc(-n3c([C@H](Cc4cc(F)cc(F)c4)NC(=O)Cn4nc(C(F)F)c5c4C(F)(F)[C@@H]4C[C@H]54)nc4cc(-c5ccnc(C6CCC6)n5)ccc4c3=O)c21` (atropisomer, axis not shown; (P)) [Example 76, N—((S)-1-((3P)-3-(4-chloro-1-methyl-3-(methylsulfonamido)-1H-indazol-7-yl)-7-(2-cyclobutylpyrimidin-4-yl)-4-oxo-3,4-dihydroquinazolin-2-yl)-2-(3,5-difluorophenyl)ethyl)-2-((3bS,4aR)-3-(difluoromethyl)-5,5-difluoro-3b,4,4a,5-tetrahydro-1H-cyclopropa[3,4]cyclopenta[1,2-c]pyrazol-1-yl)acetamide] gave an EC50 [1] of 0.18 nM and a CC50 at 4 days [2] greater than 500 nM.

Work on `Cn1nc(NS(C)(=O)=O)c2c(Cl)ccc(-n3c([C@H](Cc4cc(F)cc(F)c4)NC(=O)Cn4nc(C(F)F)c5c4C(F)(F)[C@@H]4C[C@H]54)nc4cc(-c5cccc(C(F)(F)F)n5)ccc4c3=O)c21` (atropisomer, axis not shown; (P)) [Example 59, N—((S)-1-((3P)-3-(4-chloro-1-methyl-3-(methylsulfonamido)-1H-indazol-7-yl)-4-oxo-7-(6-(trifluoromethyl)pyridin-2-yl)-3,4-dihydroquinazolin-2-yl)-2-(3,5-difluorophenyl)ethyl)-2-((3bS,4aR)-3-(difluoromethyl)-5,5-difluoro-3b,4,4a,5-tetrahydro-1H-cyclopropa[3,4]cyclopenta[1,2-c]pyrazol-1-yl)acetamide] yielded an EC50 [1] of 0.12 nM and a CC50 at 4 days [2] greater than 500 nM.

`COc1cnc(C)nc1-c1ccc2c(=O)n(-c3ccc(Cl)c4c(NS(C)(=O)=O)nn(C)c34)c([C@H](Cc3cc(F)cc(F)c3)NC(=O)Cn3nc(C(F)F)c4c3C(F)(F)[C@@H]3C[C@H]43)nc2c1` (atropisomer, axis not shown; (P)) [Example 9, N—((S)-1-((3P)-3-(4-chloro-1-methyl-3-(methylsulfonamido)-1H-indazol-7-yl)-7-(5-methoxy-2-methylpyrimidin-4-yl)-4-oxo-3,4-dihydroquinazolin-2-yl)-2-(3,5-difluorophenyl)ethyl)-2-((3bS,4aR)-3-(difluoromethyl)-5,5-difluoro-3b,4,4a,5-tetrahydro-1H-cyclopropa[3,4]cyclopenta[1,2-c]pyrazol-1-yl)acetamide] showed an EC50 [1] of 0.058 nM and a CC50 at 4 days [2] greater than 500 nM.

Work on `Cn1nc(NS(C)(=O)=O)c2c(Cl)ccc(-n3c([C@H](Cc4cc(F)cc(F)c4)NC(=O)Cn4nc(C(F)F)c5c4C(F)(F)[C@@H]4C[C@H]54)nc4cc(-c5nccc(C(C)(C)C)n5)ccc4c3=O)c21` (atropisomer, axis not shown; (P)) [Example 47, N—((S)-1-(7-(4-(tert-butyl)pyrimidin-2-yl)-(3P)-3-(4-chloro-1-methyl-3-(methylsulfonamido)-1H-indazol-7-yl)-4-oxo-3,4-dihydroquinazolin-2-yl)-2-(3,5-difluorophenyl)ethyl)-2-((3bS,4aR)-3-(difluoromethyl)-5,5-difluoro-3b,4,4a,5-tetrahydro-1H-cyclopropa[3,4]cyclopenta[1,2-c]pyrazol-1-yl)acetamide] yielded an EC50 [1] of 0.19 nM and a CC50 at 4 days [2] greater than 500 nM.
